Assay [1] deals with S. aureus ATCC 25923. In kind it is cell-based, Staphylococcus aureus. From the text: (§1) Table 3 MIC and MBC of the native Bac5(1–17) (wt) and selected Bac5‐derivatives on pathogenic and reference bacterial strains. | column: MBC (μM) / wt; MBC (μM) / 258; MBC (μM) / 272; MBC (μM) / 278; MBC (μM) / 281; MBC (μM) / 291
Assay [2] relates to P. aeruginosa ATCC 27853. In kind it is cell-based, Pseudomonas aeruginosa.
Source text: as §1

The test system of assay [3] is K. pneumoniae ATCC 700603. The class given is cell-based, Klebsiella pneumoniae.
Source text: as §1

Assay [4] concerns A. baumannii ATCC 19606. In kind it is cell-based, Acinetobacter baumannii.
Source text: as §1

In assay [5] the test system is E. coli EA22 ETEC. In kind it is cell-based, Escherichia coli. Conditions: 18 h. From the text: (§2) The following bacterial strains were used: Escherichia coli BW25113, E. coli BW25113ΔsbmA (JW0368‐1, KEIO collection21); Acinetobacter baumannii ATCC 19606, Klebsiella pneumoniae ATCC 700603, Pseudomonas aeruginosa ATCC 27853 and Staphylococcus aureus ATCC 25923. The pathogenic E. coli EURL‐VTEC A07, E. coli EURL‐VTEC C07, E. coli SSI‐NN14, E. coli EA22, E. coli SSI‐OO15 and E. coli C679‐12 strains were generously provided by the European Union Reference Laboratory for E. coli, Department of Food Safety, Nutrition and Veterinary Public Health, Istituto Superiore di Sanità, Rome, Italy. All the strains were grown overnight in Müller‐Hinton broth (MHB, Difco) at 37 °C, with shaking (140 rpm). The day after, the overnight bacterial cultures were diluted approx. 1 : 40 in fresh MHB and incubated at 37 °C with shaking (140 rpm) until an OD600nm of ≈0.3 was reached. E. coli BW25113ΔsbmA was grown in the presence of 50 μg mL^−1 kanamycin.
(§3) Peptides were diluted in 100 μL of MHB to the concentration of 128 μM, dispensed in the first wells of a 96‐wells microtiter plate (round‐bottom) and serially two‐fold diluted with MHB into successive wells in a final volume of 50 μl. Subsequently, 50 μL of a bacterial suspension (5×10^5 CFU mL^−1) were added to each well, halving the final concentration of bacteria and peptides. Bacteria were added to MHB only as bacterial growth‐control, whereas 100 μl of MHB were used to check the medium sterility. The plate was incubated overnight at 37 °C (≈18 hours) and sealed with parafilm to minimise evaporation. The MIC was calculated as the first clear well without bacterial growth. If barely detectable growth was present, the OD600nm of the plate was measured by a multiplate reader Tecan (software Sunrise). The MIC was then calculated as the well whose OD620 was≤1 % of that of the untreated growth control.

Assay [6] deals with E. coli C679‐12 EAEC:0104. The class given is cell-based, Escherichia coli. Conditions: C679‐12 EAEC:0104, 18 h.
Source text: as §2, §3

Assay [7] deals with E. coli BW25113. In kind it is cell-based, Escherichia coli. Conditions: BW25113, 18 h.
Source text: as §2, §3

Assay [8] relates to E. coli EURL‐VTEC A07 EPEC:O111. In kind it is cell-based, Escherichia coli. To be noted: EURL‐VTEC A07 EPEC:O111, 18 h.
Source text: as §2, §3

Assay [9] deals with E. coli EURL‐VTEC C07 STEC:O157. In kind it is cell-based, Escherichia coli. Conditions: EURL‐VTEC C07 STEC:O157, 18 h.
Source text: as §2, §3

Assay [10] relates to E. coli SSI‐OO15 EIEC. In kind it is cell-based, Escherichia coli. Conditions: 18 h.
Source text: as §2, §3

Assay [11] relates to E. coli BW25113. In kind it is cell-based, Escherichia coli.
Source text: as §1

The test system of assay [12] is S. aureus ATCC 25923. The class given is cell-based, Staphylococcus aureus. Conditions: ATCC 25923, 18 h.
Source text: as §2, §3

For assay [13], the system named is P. aeruginosa ATCC 27853. In kind it is cell-based, Pseudomonas aeruginosa. Conditions: ATCC 27853, 18 h.
Source text: as §2, §3

Ends that are not written are not given here.

For the substance RWRRPIRRRPIRPPFWR [compound 291], the minimal bactericidal concentration (MBC) in assay [1] is 64 µM; in assay [2], >64 µM; in assay [3], >64 µM; in assay [4], 16 µM; in [11] it was 8 µM. The minimal inhibitory concentration (MIC) in assay [5] turned out to be 1 µM; in [6], 1 µM; in [7], 2 µM; in [8], 2 µM; in assay [9], 2 µM; in assay [10] it was 1 µM.
Turning to RFRWPIRRPPIRPPFYR [compound 272], the minimum bactericidal concentration (MBC) in assay [1] was >64 µM; in assay [2] it was 64 µM; in assay [3], >64 µM; in [4] it was 16 µM; in assay [11], 8 µM. Moreover, the MIC in assay [5] was found to be 1 µM; in [6], 2 µM; in assay [7], 4 µM; in [8], 2 µM; in assay [9], 8 µM; in [10], 1 µM. The minimum inhibitory concentration (MIC) in assay [12] is >64 µM.
“RFRPEIRRPPIRPPFYPG-NH2 (C-terminus assumed) [P5E]”: in [7], the minimum inhibitory concentration (MIC) is >64 µM.
On the same count and under the same terms, then “RFRPPIRRPPIRPPFYRG-NH2 [258 (SPOT form)]”, with 8 µM; and “RWRRPIRRRPIRPPFWRG-NH2 [291 (SPOT form)]”, with 4 µM.
Turning to RFSPPIRRPPIRPPFYPG-NH2 [R3S], the MIC in [7] is >64 µM.
Same read-out and setting: under RFRPPIRPPPIRPPFYPG-NH2 [R8P] stands >64 µM.
For the substance “RFRPPIRRPPFRPPFYPG-NH2 (C-terminus assumed) [I11F]”, in assay [7], the MIC was determined as 32 µM.
Same read-out and setting: then RFRPPIREPPIRPPFYPG-NH2 [R8E], with >64 µM.
For “RFRPPIRRPPIRPPGYPG-NH2 (C-terminus assumed) [F15G]”, the minimum inhibitory concentration (MIC) in [7] was found to be 32 µM.
Same read-out and setting: under SFRPPIRRPPIRPPFYPG-NH2 [R1S] stands >64 µM.
FFRPPIRRPPIRPPFYPG-NH2 [R1F] gave an MIC in [7] of 64 µM.
On the same count and under the same terms, under “RFRPPIRRPAIRPPFYPG-NH2 (C-terminus assumed) [P10A]” stands >64 µM.
Still for that read-out and setting: under RFRPPIRRPPIPPPFYPG-NH2 [R12P] stands >64 µM.
On the same count and under the same terms, then RFRPPIRRPPIEPPFYPG-NH2 [R12E], with >64 µM; and “RARPPIRRPPIRPPFYPG-NH2 (C-terminus assumed) [F2A]”, with 32 µM; and “RGRPPIRRPPIRPPFYPG-NH2 (C-terminus assumed) [F2G]”, with 16 µM.
Consider RFRPPIRRPPIRPPFPPG-NH2 [Y16P], for which the MIC in assay [7] worked out at 64 µM. Compared with the last substance, the MIC is about 4-fold higher.
On the same count and under the same terms, then RFPPPIRRPPIRPPFYPG-NH2 [R3P], with 64 µM; and RFRPPIRRPPIRPEFYPG-NH2 [P14E], with >64 µM.
For “RFRPAIRRPPIRPPFYPG-NH2 (C-terminus assumed) [P5A]”, in assay [7], the minimal inhibitory concentration (MIC) worked out at 64 µM.
The same measure, in the same setting: under RFWPPIRRPPIRPPFYPG-NH2 [R3W] stands 32 µM; under “RFRAPIRRPPIRPPFYPG-NH2 (C-terminus assumed) [P4A]”, 24 µM.
In assay [7], WFRPPIRRPPIRPPFYPG-NH2 [R1W] returned an MIC of 32 µM.
On to “RFRPRIRRPPIRPPFYPG-NH2 (C-terminus assumed) [P5R]”, for which the MIC in assay [7] is 16 µM.
Still for that read-out and setting: under “RFRFPIRRPPIRPPFYPG-NH2 (C-terminus assumed) [P4F]” stands 8 µM; under RFRPPIRRPPIRGPFYPG-NH2 [P13G], >64 µM; under RFRPPIRRPPIRPPFAPG-NH2 [Y16A], 64 µM.
In turn, RFRPPIRRPPIRPFFYPG-NH2 [P14F] came in with a minimum inhibitory concentration (MIC) in assay [7] of 32 µM.
Still for that read-out and setting: under RFRPPIRRPPIRPPFFPG-NH2 [Y16F] stands 16 µM; under “RFRPPWRRPPIRPPFYPG-NH2 (C-terminus assumed) [I6W]”, 8 µM.
Same read-out and setting: then RFRPPIRRPPIRPSFYPG-NH2 [P14S], with 64 µM; and RFRPPIRRPPIRPRFYPG-NH2 [P14R], with 32 µM.
On to RWRRPIRRRPIRPPFYW [compound 281], for which the MBC in assay [1] is 32 µM; in [2], 48 µM; in [3] it was >64 µM; in [4] it was 8 µM; in assay [11], 2 µM. For the same substance, the MIC is 2 µM in [5]; 2 µM in assay [6]; 2 µM in assay [7]; 2 µM in assay [8]; 2 µM in [9]; 1 µM in [10].
“RFRRPIRRPPIRPPFYPG-NH2 (C-terminus assumed) [P4R]” had a minimal inhibitory concentration (MIC) in assay [7] of 4 µM.
With RFRPPIRRPPISPPFYPG-NH2 [R12S], the MIC in assay [7] is >64 µM.
Turning to “RFRPPGRRPPIRPPFYPG-NH2 (C-terminus assumed) [I6G]”, the MIC in assay [7] was >64 µM.
The same measure, in the same setting: then “RFRPGIRRPPIRPPFYPG-NH2 (C-terminus assumed) [P5G]”, with >64 µM.
Still for that read-out and setting: under RFRPPIFRPPIRPPFYPG-NH2 [R7F] stands 32 µM; under RFRPPIRRPPIRWPFYPG-NH2 [P13W], 16 µM.
Substance RFGPPIRRPPIRPPFYPG-NH2 [R3G] had an MIC in assay [7] of 64 µM. Against the preceding substance, the MIC is about 4-fold higher.
RWRWPIRRPPIRPPFYR [compound 278]: the minimal bactericidal concentration (MBC) was >64 µM in assay [1]; 64 µM in assay [2]; 48 µM in assay [3]; 8 µM in [4]; 4 µM in [11]. Moreover, the minimum inhibitory concentration (MIC) in assay [13] is 16 µM; in assay [5] it was 1 µM; in assay [6], 2 µM; in assay [7], 2 µM; in assay [8], 1 µM; in assay [9], 8 µM. Also, the MIC in assay [10] was 1 µM; in assay [12], >64 µM.
On to “RFRPPIRRPPPRPPFYPG-NH2 (C-terminus assumed) [I11P]”, for which the MIC in assay [7] is >64 µM.
Still for that read-out and setting: under RFRPPIRWPPIRPPFYPG-NH2 [R8W] stands 32 µM; under “RFRPPIRRPPERPPFYPG-NH2 (C-terminus assumed) [I11E]”, >64 µM.
The same measure, in the same setting: then GFRPPIRRPPIRPPFYPG-NH2 [R1G], with 32 µM.
The same measure, in the same setting: under “RSRPPIRRPPIRPPFYPG-NH2 (C-terminus assumed) [F2S]” stands 64 µM; under RFRPPIRRPPIRPGFYPG-NH2 [P14G], >64 µM; under RFRPPIRRPPIGPPFYPG-NH2 [R12G], >64 µM.
With RFRPPIRRPPIRAPFYPG-NH2 [P13A], in [7], the minimum inhibitory concentration (MIC) was >64 µM.
In assay [7], RFRPPIRRPPIRPPFRPG-NH2 [Y16R] came in with an MIC of 16 µM.
In assay [7], RFRPPIRRPPIRFPFYPG-NH2 [P13F] came in with a minimum inhibitory concentration (MIC) of 32 µM.
Regarding “RFRPPIRRPPIRPPSYPG-NH2 (C-terminus assumed) [F15S]”, the MIC in assay [7] amounted to 64 µM. Against the preceding substance, the MIC is about 2-fold higher.

As a reminder, the MBC is the lowest tested concentration that kills the bacteria rather than only halting them. Low readings indicate greater bactericidal potency, high ones weaker bactericidal potency. The term MIC denotes the least concentration at which growth counts as inhibited. Read a low MIC as inhibition by little substance.

These data come from PMC6973051, “Proline‐Rich Peptides with Improved Antimicrobial Activity against E. coli, K. pneumoniae, and A. baumannii” (Chemmedchem, 2019).
